Test results taken from PubChem BioAssay AID248 (DTP/NCI, 2004).
Where “and” joins values, the source holds several entries; their conditions need not be identical. Equal entries are not always repeated. Inconclusive results and toxic doses are left out.

System: L1210 leukemia ip in BDF1 mice, survival T/C
Experiment: NCI In Vivo Anticancer Drug Screen. Data for tumor model L1210 Leukemia (intraperitoneal) in B6D2F1 (BDF1) mice
Conditions: endpoint: mean survival time, higher = longer survival
Outline: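 Transplantable tumor model; survival measured in treated vs vehicle control mice. Value = treated/control.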

[1] = dose: 100.0 mg/kg/injection, schedule: Q04DX003 (ip), vehicle: saline with Tween-80
[2] = dose: 200.0 mg/kg/injection, schedule: Q04DX003 (ip), vehicle: saline with Tween-80
[3] = dose: 1.0 mg/kg/injection, schedule: Q01DX009 (ip), vehicle: saline
[4] = dose: 100.0 mg/kg/injection, schedule: Q01DX001 (ip), vehicle: saline with Tween-80
[5] = dose: 200.0 mg/kg/injection, schedule: Q01DX001 (ip), vehicle: saline with Tween-80
[6] = dose: 100.0 mg/kg/injection, schedule: Q01DX009 (ip), vehicle: saline with Tween-80
[7] = dose: 100.0 mg/kg/injection, schedule: Q01DX001 (ip), vehicle: Klucel (hydroxypropylcellulose) (HPC)
[8] = dose: 200.0 mg/kg/injection, schedule: Q01DX009 (ip), vehicle: saline with Tween-80
[9] = dose: 400.0 mg/kg/injection, schedule: Q01DX009 (ip), vehicle: saline with Tween-80
[10] = dose: 50.0 mg/kg/injection, schedule: Q01DX001 (ip), vehicle: carboxymethylcellulose (CMC)
[11] = dose: 100.0 mg/kg/injection, schedule: Q01DX001 (ip), vehicle: carboxymethylcellulose (CMC)
[12] = dose: 200.0 mg/kg/injection, schedule: Q01DX001 (ip), vehicle: carboxymethylcellulose (CMC)
[13] = dose: 400.0 mg/kg/injection, schedule: Q01DX001 (ip), vehicle: carboxymethylcellulose (CMC)
[14] = dose: 100.0 mg/kg/injection, schedule: Q01DX001 (ip), vehicle: other
[15] = dose: 200.0 mg/kg/injection, schedule: Q01DX001 (ip), vehicle: other
[16] = dose: 400.0 mg/kg/injection, schedule: Q01DX001 (ip), vehicle: other

SMILES: O=P(Oc1ccccc1)(Oc1ccccc1)C(Nc1ccccc1)c1cccnc1 (configuration not stated)
- T/C [1]: 89 % of control
- T/C [2]: 103 % of control

SMILES: O=C(O)CSC(CC(=O)O)C(F)(F)C(F)(F)C(F)(F)F (configuration not stated)
- T/C (dose: 100.0 mg/kg/injection, schedule: Q01DX009 (ip), vehicle: saline): 100 % of control
- T/C (dose: 100.0 mg/kg/injection, schedule: Q04DX003 (ip), vehicle: saline): 96 % of control
- T/C (dose: 200.0 mg/kg/injection, schedule: Q01DX009 (ip), vehicle: saline): 97 % of control
- T/C (dose: 200.0 mg/kg/injection, schedule: Q04DX003 (ip), vehicle: saline): 98 % of control
- T/C (dose: 400.0 mg/kg/injection, schedule: Q01DX009 (ip), vehicle: saline): 104 % of control
- T/C (dose: 400.0 mg/kg/injection, schedule: Q04DX003 (ip), vehicle: saline): 93 % of control

SMILES: CC[C@@]1(O)C(=O)OCc2c1cc1n(c2=O)Cc2cc3cc(O)ccc3nc2-1
- T/C (dose: 0.15 mg/kg/injection, schedule: Q01DX015 (ip), vehicle: saline): 151 % of control
- T/C (dose: 0.22 mg/kg/injection, schedule: Q01DX015 (ip), vehicle: saline): 157 % of control
- T/C (dose: 0.34 mg/kg/injection, schedule: Q01DX015 (ip), vehicle: saline): 165 % of control
- T/C (dose: 0.51 mg/kg/injection, schedule: Q01DX015 (ip), vehicle: saline): 233 % of control
- T/C (dose: 0.77 mg/kg/injection, schedule: Q01DX015 (ip), vehicle: saline): 157 % of control
- T/C [3]: 185 % of control
- T/C (dose: 1.16 mg/kg/injection, schedule: Q01DX015 (ip), vehicle: saline): 161 % of control
- T/C (dose: 1.75 mg/kg/injection, schedule: Q01DX015 (ip), vehicle: saline): 177 % of control
- T/C (dose: 2.0 mg/kg/injection, schedule: Q01DX001 (ip), vehicle: saline): 111 % of control
- T/C (dose: 2.0 mg/kg/injection, schedule: Q01DX009 (ip), vehicle: saline): 229 % of control
- T/C (dose: 2.0 mg/kg/injection, schedule: Q01DX009 (oral), vehicle: saline): 105 % of control and 108 % of control
- T/C (dose: 3.0 mg/kg/injection, schedule: Q01DX009 (oral), vehicle: saline): 114 % of control and 115 % of control
- T/C (dose: 4.0 mg/kg/injection, schedule: Q01DX001 (ip), vehicle: saline): 164 % of control
- T/C (dose: 7.0 mg/kg/injection, schedule: Q01DX009 (oral), vehicle: saline): 101 % of control and 120 % of control
- T/C (dose: 8.0 mg/kg/injection, schedule: Q01DX001 (ip), vehicle: saline): 242 % of control
- T/C (dose: 10.0 mg/kg/injection, schedule: Q01DX009 (oral), vehicle: saline): 121 % of control
- T/C (dose: 15.0 mg/kg/injection, schedule: Q01DX009 (oral), vehicle: saline): 115 % of control
- T/C (dose: 16.0 mg/kg/injection, schedule: Q01DX001 (ip), vehicle: saline): 88 % of control
- T/C (dose: 12.0 micrograms/kg/injection, schedule: Q01DX015 (ip), vehicle: saline): 113 % of control
- T/C (dose: 19.0 micrograms/kg/injection, schedule: Q01DX015 (ip), vehicle: saline): 111 % of control
- T/C (dose: 29.0 micrograms/kg/injection, schedule: Q01DX015 (ip), vehicle: saline): 118 % of control
- T/C (dose: 44.0 micrograms/kg/injection, schedule: Q01DX015 (ip), vehicle: saline): 120 % of control
- T/C (dose: 100.0 micrograms/kg/injection, schedule: Q01DX015 (ip), vehicle: saline): 150 % of control

SMILES: CCOC(=O)CCC(NC(=O)c1cnc(N)s1)C(=O)OCC (configuration not stated)
- T/C (dose: 44.0 mg/kg/injection, schedule: Q01DX001 (ip), vehicle: saline with Tween-80): 97 % of control
- T/C (dose: 66.0 mg/kg/injection, schedule: Q01DX001 (ip), vehicle: saline with Tween-80): 97 % of control
- T/C [4]: 97 % of control
- T/C (dose: 150.0 mg/kg/injection, schedule: Q01DX001 (ip), vehicle: saline with Tween-80): 101 % of control
- T/C [5]: 93 % of control
- T/C (dose: 400.0 mg/kg/injection, schedule: Q01DX001 (ip), vehicle: saline with Tween-80): 102 % of control

SMILES: COc1ccc2c(c1)CCC1(C)C2=CC(=O)/C1=C\[O-].COc1ccc2c(c1)CCC1(C)C2=CC(=O)/C1=C\[O-].[Cu+2] (configuration not stated)
- T/C (dose: 25.0 mg/kg/injection, schedule: Q01DX009 (ip), vehicle: saline with Tween-80): 108 % of control
- T/C (dose: 50.0 mg/kg/injection, schedule: Q01DX009 (ip), vehicle: saline with Tween-80): 113 % of control
- T/C [6]: 97 % of control
- T/C (dose: 100.0 mg/kg/injection, schedule: Q04DX003 (ip), vehicle: saline sonified): 91 % of control

SMILES: CC[C@](C)(O)C(=O)O[C@H]1C(=O)O[C@@H]2C[C@H]3C(C)=CC(=O)[C@@H](O)[C@]3(C)[C@H]3[C@@]4(O)OC[C@]32[C@@H]1[C@@H](C)[C@H]4O
- T/C (dose: 0.2 mg/kg/injection, schedule: Q01DX009 (ip), vehicle: saline): 98 % of control
- T/C (dose: 0.3 mg/kg/injection, schedule: Q01DX009 (ip), vehicle: saline): 100 % of control
- T/C (dose: 0.44 mg/kg/injection, schedule: Q01DX009 (ip), vehicle: saline): 92 % of control
- T/C (dose: 0.66 mg/kg/injection, schedule: Q01DX009 (ip), vehicle: saline): 92 % of control
- T/C [3]: 102 % of control

SMILES: Cc1cccc(NC#N)n1
- T/C (dose: 25.0 mg/kg/injection, schedule: Q01DX001 (ip), vehicle: Klucel (hydroxypropylcellulose) (HPC)): 100 % of control
- T/C (dose: 50.0 mg/kg/injection, schedule: Q01DX001 (ip), vehicle: Klucel (hydroxypropylcellulose) (HPC)): 98 % of control
- T/C [7]: 98 % of control and 101 % of control

SMILES: Cc1cc(C)c2c(C#N)cn(-c3cccc([N+](=O)[O-])c3)c2n1
- T/C (dose: 50.0 mg/kg/injection, schedule: Q01DX001 (ip), vehicle: saline with Tween-80): 98 % of control
- T/C [4]: 103 % of control
- T/C [5]: 95 % of control
- T/C (dose: 200.0 mg/kg/injection, schedule: Q01DX001 (ip), vehicle: saline): 87 % of control

SMILES: O=c1cc(Oc2ccc([N+](=O)[O-])cc2)[nH]c(=O)[nH]1
- T/C [7]: 96 % of control
- T/C (dose: 200.0 mg/kg/injection, schedule: Q01DX001 (ip), vehicle: Klucel (hydroxypropylcellulose) (HPC)): 107 % of control

SMILES: COc1cc(NS(=O)(=O)c2ccc(C)cc2)c2c(c1N)C(=O)c1ccccc1C2=O
- T/C [6]: 105 % of control
- T/C [1]: 98 % of control
- T/C [8]: 94 % of control
- T/C [2]: 98 % of control
- T/C [9]: 100 % of control
- T/C (dose: 400.0 mg/kg/injection, schedule: Q04DX003 (ip), vehicle: saline with Tween-80): 93 % of control

SMILES: O=C1c2ccccc2S(=O)(=O)N1CC(O)COc1ccc(Cl)cc1 (configuration not stated)
- T/C [6]: 93 % of control
- T/C [8]: 102 % of control
- T/C [9]: 101 % of control

SMILES: CC1CC(C)(C)S(=O)(=O)O1 (configuration not stated)
- T/C [10]: 107 % of control
- T/C [11]: 98 % of control
- T/C [12]: 109 % of control
- T/C [13]: 102 % of control

SMILES: C=C(N1CCCCC1)N1CCCCC1
- T/C (dose: 100.0 mg/kg/injection, schedule: Q04DX002 (ip), vehicle: saline with Tween-80): 100 % of control
- T/C (dose: 200.0 mg/kg/injection, schedule: Q04DX002 (ip), vehicle: saline with Tween-80): 96 % of control
- T/C (dose: 400.0 mg/kg/injection, schedule: Q04DX002 (ip), vehicle: saline with Tween-80): 116 % of control

SMILES: CCOC(=O)Nc1cc2[nH]cnc2c(NC(=O)OCC)n1
- T/C (dose: 75.0 mg/kg/injection, schedule: Q01DX001 (ip), vehicle: saline): 95 % of control
- T/C (dose: 150.0 mg/kg/injection, schedule: Q01DX001 (ip), vehicle: saline): 101 % of control
- T/C (dose: 300.0 mg/kg/injection, schedule: Q01DX001 (ip), vehicle: saline): 92 % of control

SMILES: CC(Cl)CN(Cc1cc(O)c(CN(CC(C)Cl)CC(C)Cl)cc1O)CC(C)Cl (configuration not stated)
- T/C [10]: 105 % of control
- T/C [11]: 94 % of control
- T/C [12]: 95 % of control
- T/C [13]: 90 % of control

SMILES: O=C(CSc1cc(Cl)ccc1Cl)Nc1ccccc1
- T/C [14]: 95 % of control
- T/C [15]: 96 % of control
- T/C [16]: 96 % of control

SMILES: O=C(O)C(Cc1ccc(O)cc1)N(S(=O)(=O)Cc1ccccc1)S(=O)(=O)Cc1ccccc1 (configuration not stated)
- T/C [14]: 88 % of control
- T/C (dose: 100.0 mg/kg/injection, schedule: Q04DX003 (ip), vehicle: other): 95 % of control
- T/C [15]: 97 % of control
- T/C (dose: 200.0 mg/kg/injection, schedule: Q04DX003 (ip), vehicle: other): 98 % of control
- T/C [16]: 108 % of control
- T/C (dose: 400.0 mg/kg/injection, schedule: Q04DX003 (ip), vehicle: other): 88 % of control
